Measurements: US10899788B2, “Cyclic phosphate substituted nucleoside compounds and methods of use thereof for the treatment of viral diseases” (MERCK SHARP & DOHME CORP., priority 2016, dated 2021)

Tests used:
[1] = system: HCV replicon cells (1b-Con1); experiment: Replicon activity assay (cell-based anti-HCV activity); details: Hepatitis C virus, 72 h, three days post-dosing, replicon RNA level by real-time RT-PCR, read-out: EC50 (1b) Range
Experimental: (§1) To measure cell-based anti-HCV activity of the compounds of the present invention, replicon cells (1b-Con1) are seeded at 5000 cells/well in 96-well plates one day prior to treatment with a compound of the invention. Various concentrations of a test compound of the invention in DMSO are then added to the replicon cells, with the final concentration of DMSO at 0.5% and fetal bovine serum at 10% in the assay media. Cells are harvested three days post-dosing, and the replicon RNA level is determined using real-time RT-PCR (Taqman assay) with GAPDH RNA as endogenous control. EC50 values are calculated from experiments with 10 serial twofold dilutions of the inhibitor in triplicate. To measure cytotoxicity in replicon cells of an inhibitor, an MTS assay is performed according to the manufacturer's protocol for CellTiter 96 Aqueous One Solution Cell Proliferation Assay (Promega, Cat #G3580) three days post dosing on cells treated identically as in replicon activity assays. […] Cytotoxicity in other types of cells may be measured using the same MTS protocol.
(§2) Data were obtained using this method for selected compounds of the present invention, and are set forth below in Table 2.

[2] = Cytotoxicity assay in replicon cells (MTS); assay type: cell-based; details: HCV replicon cells (1b-Con1), three days post dosing, head prints EDU, method MTS, read-out: CC50 (EDU) Range
Experimental: as §1, §2

SMILES	EC50 [1]	CC50 at 3 days [2]
C#C[C@]1(C)[C@@H]2OP(=O)(OCCCC(=O)OC3CCCC3)OC[C@H]2O[C@H]1n1ccc(=O)[nH]c1=O (stereo partly drawn) [7A or 7B]	≤ 0.25 µM	
CCOC(=O)CCCCOP1(=O)OC[C@H]2O[C@@H](n3ccc(=O)[nH]c3=O)[C@](C)(N)[C@@H]2O1 (stereo partly drawn) [21A or 21B]	> 10 µM	> 50 µM
CC(C)OC(=O)CCCOP1(=O)OC[C@H]2O[C@@H](n3ccc(=O)[nH]c3=O)[C@](C)(C#N)[C@@H]2O1 (stereo partly drawn) [Compound 1A]	1 to 10 µM	> 50 µM
CC(C)OC(=O)CCCO[P@]1(=O)OC[C@H]2O[C@@H](n3ccc(=O)[nH]c3=O)[C@](C)(C#N)[C@@H]2O1 [Compound 1B]	0.25 to 1 µM	> 50 µM
CCOc1nc(N)nc2c1ncn2[C@@H]1O[C@@H]2CO[P@](=O)(OCCCC(=O)OC(C)C)O[C@H]2[C@@]1(C)N [Compound 3A]	> 10 µM	> 50 µM
CCOc1nc(N)nc2c1ncn2[C@@H]1O[C@@H]2CO[P@@](=O)(OCCCC(=O)OC(C)C)O[C@H]2[C@@]1(C)N [Compound 3B]	1 to 10 µM	> 50 µM
CCCCOC(=O)CCCO[P@@]1(=O)OC[C@H]2O[C@@H](n3ccc(=O)[nH]c3=O)[C@](C)(N)[C@@H]2O1 [Compound 4A]	> 10 µM	> 50 µM
CCCCOC(=O)CCCO[P@]1(=O)OC[C@H]2O[C@@H](n3ccc(=O)[nH]c3=O)[C@](C)(N)[C@@H]2O1 [Compound 4B]	1 to 10 µM	> 50 µM
C[C@@]1(N)[C@@H]2O[P@@](=O)(OCCCC(=O)OC3CCCC3)OC[C@H]2O[C@H]1n1ccc(=O)[nH]c1=O [Compound 5A]	> 10 µM	> 50 µM
C[C@@]1(N)[C@@H]2O[P@](=O)(OCCCC(=O)OC3CCCC3)OC[C@H]2O[C@H]1n1ccc(=O)[nH]c1=O [Compound 5B]	> 10 µM	> 50 µM
C[C@@]1(Cl)[C@@H]2O[P@@](=O)(OCCCC(=O)OC3CCCC3)OC[C@H]2O[C@H]1n1ccc(N)nc1=O [Compound 6A]	> 10 µM	> 50 µM
C[C@@]1(Cl)[C@@H]2O[P@](=O)(OCCCC(=O)OC3CCCC3)OC[C@H]2O[C@H]1n1ccc(N)nc1=O [Compound 6B]	≤ 0.25 µM	> 50 µM
CC(C)OC(=O)CCCO[P@@]1(=O)OC[C@H]2O[C@@H](n3ccc(N)nc3=O)[C@](C)(Cl)[C@@H]2O1 [Compound 8A]	1 to 10 µM	> 50 µM
CC(C)OC(=O)CCCO[P@]1(=O)OC[C@H]2O[C@@H](n3ccc(N)nc3=O)[C@](C)(Cl)[C@@H]2O1 [Compound 8B]	0.25 to 1 µM	> 50 µM
CCOc1nc(N)nc2c1ncn2[C@@H]1O[C@@H]2CO[P@](=O)(OCCCC(=O)OC(C)C)O[C@H]2[C@@]1(C)Cl [Compound 9A]	> 10 µM	> 50 µM
CCOc1nc(N)nc2c1ncn2[C@@H]1O[C@@H]2CO[P@@](=O)(OCCCC(=O)OC(C)C)O[C@H]2[C@@]1(C)Cl [Compound 9B]	≤ 0.25 µM	> 50 µM
CC(C)OC(=O)CCCO[P@@]1(=O)OC[C@H]2O[C@@H](n3ccc(N)nc3=O)[C@](C)(N)[C@@H]2O1 [Compound 10A]	> 10 µM	> 50 µM
CC(C)OC(=O)CCCO[P@]1(=O)OC[C@H]2O[C@@H](n3ccc(N)nc3=O)[C@](C)(N)[C@@H]2O1 [Compound 10B]	> 10 µM	> 50 µM
CC(C)OC(=O)CCCCCO[P@@]1(=O)OC[C@H]2O[C@@H](n3ccc(=O)[nH]c3=O)[C@](C)(N)[C@@H]2O1 [Compound 25A]	> 10 µM	
CC(C)OC(=O)CCCCCO[P@]1(=O)OC[C@H]2O[C@@H](n3ccc(=O)[nH]c3=O)[C@](C)(N)[C@@H]2O1 [Compound 25B]	> 10 µM	
CC(C)OC(=O)CCO[P@@]1(=O)OC[C@H]2O[C@@H](n3ccc(=O)[nH]c3=O)[C@](C)(Cl)[C@@H]2O1 [Compound 27A]	1 to 10 µM	
CC(C)OC(=O)CCO[P@]1(=O)OC[C@H]2O[C@@H](n3ccc(=O)[nH]c3=O)[C@](C)(Cl)[C@@H]2O1 [Compound 27B]	1 to 10 µM	
